The text below walks through data of patent publication US12240838B2, “Inhibiting agents for Bruton's tyrosine kinase” (BIOGEN MA INC., priority 2019, dated 2025).

A value given as a limit tells only on which side of the number the result lay.

For assay [1], the target named is T1, BTK (Homo sapiens (Human), UniProt Q06187). The experiment in a line: In Vitro BTK Kinase Assay: BTK-POLYGAT-LS ASSAY. Format: biochemical. The following applies: ATP 10 μM, polyGAT 100 nM, BTK 0.25 nM, 30 minutes. Put shortly:
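BTK (0.25 nM final) with 10 μM ATP and 100 nM polyGAT in pH 7.5 Tris buffer with MgCl2, DTT, Triton X-100 and casein; compound titrated 4-fold. Reaction 30 min, stopped with EDTA. Phosphorylation detected by TR-FRET with Tb-PY20 antibody after 45 min at room temperature; IC50 reported.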

Assay [2] concerns the target T1, BTK. The assay can be described thus: In Vitro PD Assay in Human Whole Blood (pBTK assay). It is filed as cell-based. Particulars: 37° C. for 30 min, 50% inhibition of ECL signal. Put shortly:
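Phospho-BTK was measured by total-BTK capture and phosphotyrosine detection in lysates of human heparinized whole blood. Vehicle samples lysed with or without phosphatase inhibitors defined the high and low controls.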

T1 sequence (Q06187 whole entry): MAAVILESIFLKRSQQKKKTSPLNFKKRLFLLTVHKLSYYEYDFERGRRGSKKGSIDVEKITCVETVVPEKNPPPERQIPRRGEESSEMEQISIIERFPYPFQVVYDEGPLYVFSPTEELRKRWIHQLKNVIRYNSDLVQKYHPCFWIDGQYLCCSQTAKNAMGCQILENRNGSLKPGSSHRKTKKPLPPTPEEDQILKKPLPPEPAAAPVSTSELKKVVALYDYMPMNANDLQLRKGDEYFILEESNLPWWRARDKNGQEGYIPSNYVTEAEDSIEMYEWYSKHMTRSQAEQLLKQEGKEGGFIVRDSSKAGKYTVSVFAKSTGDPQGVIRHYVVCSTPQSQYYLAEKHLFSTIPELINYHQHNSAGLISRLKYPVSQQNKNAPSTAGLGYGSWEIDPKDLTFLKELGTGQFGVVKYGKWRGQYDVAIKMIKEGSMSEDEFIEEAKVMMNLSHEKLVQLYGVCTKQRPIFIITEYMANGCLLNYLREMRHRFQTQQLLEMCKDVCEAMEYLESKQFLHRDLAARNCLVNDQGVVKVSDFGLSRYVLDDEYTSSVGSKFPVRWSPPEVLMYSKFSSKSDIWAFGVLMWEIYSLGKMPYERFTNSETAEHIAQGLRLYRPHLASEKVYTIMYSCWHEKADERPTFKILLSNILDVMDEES

`CC(C)(C)c1nc(C(=O)N[C@@H]2CCCCc3cc(-c4ccnc(NC(=O)C5CC5)c4)ccc32)co1` [Compound 68, (R)-2-(tert-butyl)-N-(2-(2-(cyclopropanecarboxamido)pyridin-4-yl)-6,7,8,9-tetrahydro-5H-benzo[7]annulen-5-yl)oxazole-4-carboxamide]: the IC50 in assay [1] was not above 1 nM; in assay [2], 500 to 10000 nM.

Turning to `CC(C)(C)c1noc(C(=O)NCc2ccc(-c3ccnc(NC(=O)C4CC4)c3)c(F)c2C(F)(F)F)n1` [Compound 69, 3-(tert-butyl)-N-(4-(2-(cyclopropanecarboxamido)pyridin-4-yl)-3-fluoro-2-(trifluoromethyl)benzyl)-1,2,4-oxadiazole-5-carboxamide], the 50% inhibitory concentration (IC50) was not above 1 nM in assay [1] and 100 to 500 nM in assay [2].

Turning to `C[C@@H](NC(=O)c1nc(C(C)(C)C)no1)c1cc(F)c(-c2ccnc(NC(=O)C3CC3)c2)cc1Cl` [Compound 70, (R)-3-(tert-butyl)-N-(1-(2-chloro-4-(2-(cyclopropanecarboxamido)pyridin-4-yl)-5-fluorophenyl)ethyl)-1,2,4-oxadiazole-5-carboxamide], the IC50 in assay [1] is not above 1 nM; in assay [2], 500 to 10000 nM.

As to `Cc1c([C@@H](C)NC(=O)c2noc(C(C)(C)C)n2)ccc(-c2ccnc(NC(=O)C3CC3)c2)c1F` [Compound 71, (R)-5-(tert-butyl)-N-(1-(4-(2-(cyclopropanecarboxamido)pyridin-4-yl)-3-fluoro-2-methyphenyl)ethyl)-1,2,4-oxadiazole-3-carboxamide], the IC50 in assay [1] was not above 1 nM; in assay [2], 500 to 10000 nM.

In the case of `CC(C)(C)c1nc(C(=O)NCc2ccc(-c3ccnc(NC(=O)C4CC4)c3)cc2C(C)(C)C)no1` [Compound 72], the half-maximal inhibitory concentration (IC50) in assay [1] is 1 to 10 nM; in assay [2], more than 10000 nM.

For `CCc1cc(-c2ccnc(NC(=O)C3CC3)c2)ccc1CNC(=O)c1noc(C(C)(C)C)n1` [Compound 73, 5-(tert-butyl)-N-(4-(2-(cyclopropanecarboxamido)pyridin-4-yl)-2-ethylbenzyl)-1,2,4-oxadiazole-3-carboxamide], the half-maximal inhibitory concentration (IC50) was not above 1 nM in assay [1] and 500 to 10000 nM in assay [2].

Take `C[C@@H](NC(=O)c1noc(C(C)(C)C)n1)c1cc(F)c(-c2ccnc(NC(=O)C3CC3)c2)cc1Cl` [Compound 76, (R)-5-(tert-butyl)-N-(1-(2-chloro-4-(2-(cyclopropanecarboxamido)pyridin-4-yl)-5-fluorophenyl)ethyl)-1,2,4-oxadiazole-3-carboxamide]: the results for the half-maximal inhibitory concentration (IC50) in assay [1] and in assay [2] were not above 1 nM and 500 to 10000 nM, respectively.

As to `CC(C)(C)c1nc(C(=O)NCc2ccc(-c3ccnc(NC(=O)C4CC4)c3)cc2C2CC2)no1` [Compound 77, 5-(tert-butyl)-N-(4-(2-(cyclopropanecarboxamido)pyridin-4-yl)-2-cyclopropylbenzyl)-1,2,4-oxadiazole-3-carboxamide], the half-inhibitory concentration (IC50) was not above 1 nM in assay [1] and 100 to 500 nM in assay [2].

As to `C[C@@H](NC(=O)c1noc(C(C)(C)C)n1)c1ccc(-c2ccnc(NC(=O)C3CC3)c2)cc1C(F)(F)F` [Compound 78, (R)-5-(tert-butyl)-N-(1-(4-(2-(cyclopropanecarboxamido)pyridin-4-yl)-2-(trifluoromethyl)phenyl)ethyl)-1,2,4-oxadiazole-3-carboxamide], the concentration for half-maximal inhibition (IC50) in assay [1] is not above 1 nM; in assay [2] it was 100 to 500 nM.

With `C[C@@H](NC(=O)c1nc(C(C)(C)C)no1)c1ccc(-c2ccnc(NC(=O)C3CC3)c2)cc1C(F)(F)F` [Compound 79, (R)-3-(tert-butyl)-N-(1-(4-(2-(cyclopropanecarboxamido)pyridin-4-yl)-2-(trifluoromethyl)phenyl)ethyl)-1,2,4-oxadiazole-5-carboxamide], the IC50 in assay [1] was not above 1 nM; in assay [2], 100 to 500 nM.

Consider `CC(C)(C)c1noc(C(=O)NCc2ccc(-c3ccnc(NC(=O)C4CC4)c3)cc2OC(F)(F)F)n1` [Compound 80, 3-(tert-butyl)-N-(4-(2-(cyclopropanecarboxamido)pyridin-4-yl)-2-(trifluoromethoxy)benzyl)-1,2,4-oxadiazole-5-carboxamide], for which the IC50 in assay [1] is not above 1 nM; in assay [2], 500 to 10000 nM.

As to `Cc1cc(-c2ccnc(NC(=O)C3CC3)c2)ccc1CNC(=O)c1cnc(C(C)(C)C)s1` [Compound 81, 2-(tert-butyl)-N-(4-(2-(cyclopropanecarboxamido)pyridin-4-yl)-2-methylbenzyl)thiazole-5-carboxamide], the values for the IC50 in assay [1] and in assay [2] were 1 to 10 nM and 500 to 10000 nM, respectively.

For the compound `Cc1cc(-c2ccnc(NC(=O)C3(F)CC3)c2)ccc1CNC(=O)c1noc(C(C)(C)C)n1` [Compound 82, 5-(tert-butyl)-N-(4-(2-(1-fluorocyclopropane-1-carboxamido)pyridin-4-yl)-2-methylbenzyl)-1,2,4-oxadiazole-3-carboxamide], the IC50 in assay [1] lay in the range of 1 to 10 nM; in assay [2], 500 to 10000 nM.

With `C[C@@H](NC(=O)c1noc(C(C)(C)C)n1)c1ccc(-c2ccnc(NC(=O)C3CC3)c2)cc1OC(F)(F)F` [Compound 83, (R)-5-(tert-butyl)-N-(1-(4-(2-(cyclopropanecarboxamido)pyridin-4-yl)-2-(trifluoromethoxy)phenyl)ethyl)-1,2,4-oxadiazole-3-carboxamide], the half-inhibitory concentration (IC50) in assay [1] lay within 1 to 10 nM; in assay [2], 500 to 10000 nM.

As to `Cc1c(CNC(=O)c2noc(C(C)(C)C)n2)ccc(-c2ccnc(NC(=O)C3CC3)c2)c1Cl` [Compound 84, 5-(tert-butyl)-N-(3-chloro-4-(2-(cyclopropanecarboxamido)pyridin-4-yl)-2-methylbenzyl)-1,2,4-oxadiazole-3-carboxamide], the IC50 was not above 1 nM in assay [1] and 100 to 500 nM in assay [2].

Turning to `Cc1cc(-c2ccnc(NC(=O)C3CC3)c2)ccc1CNC(=O)c1cn(C(C)(C)C)nn1` [Compound 89, 1-(tert-butyl)-N-(4-(2-(cyclopropanecarboxamido)pyridin-4-yl)-2-methylbenzyl)-1H-1,2,3-triazole-4-carboxamide], the values for the IC50 in assay [1] and in assay [2] were 1 to 10 nM and 100 to 500 nM, respectively.

Take `Cc1cc(-c2ccnc(NC(=O)C3CC3)c2)ccc1CNC(=O)c1nnc(C(C)(C)C)o1` [Compound 90, 5-(tert-butyl)-N-(4-(2-(cyclopropanecarboxamido)pyridin-4-yl)-2-methylbenzyl)-1,3,4-oxadiazole-2-carboxamide]: the values for the half-inhibitory concentration (IC50) in assay [1] and in assay [2] were 1 to 10 nM and 100 to 500 nM, respectively.

As to `C[C@@H](NC(=O)c1nc(C(C)(C)C)no1)c1ccc(-c2ccnc(NC(=O)C3CC3)c2)cc1Cl` [Compound 91, (R)-3-(tert-butyl)-N-(1-(2-chloro-4-(2-(cyclopropanecarboxamido)pyridin-4-yl)phenyl)ethyl)-1,2,4-oxadiazole-5-carboxamide], the IC50 in assay [1] was not above 1 nM; in assay [2] it was 100 to 500 nM.

As for `CC(C)(C)c1noc(C(=O)N[C@@H]2CCN(CC(F)(F)F)Cc3cc(-c4ccnc(NC(=O)C5CC5)c4)ccc32)n1` [Compound 92, (R)-3-(tert-butyl)-N-(8-(2-(cyclopropanecarboxamido)pyridin-4-yl)-2-(2,2,2-trifluoroethyl)-2,3,4,5-tetrahydro-1H-benzo[c]azepin-5-yl)-1,2,4-oxadiazole-5-carboxamide], the results for the IC50 in assay [1] and in assay [2] were not above 1 nM and 100 to 500 nM, respectively.

For the compound `Cc1cc(-c2ccnc(NC(=O)C3CC3)c2)ccc1[C@@H](C)NC(=O)c1nc(C(C)(C)C)no1` [Compound 93, (R)-3-(tert-butyl)-N-(1-(4-(2-(cyclopropanecarboxamido)pyridin-4-yl)-2-methylphenyl)ethyl)-1,2,4-oxadiazole-5-carboxamide], the concentration for half-maximal inhibition (IC50) was not above 1 nM in assay [1] and 100 to 500 nM in assay [2].

For the compound `Cc1c(CNC(=O)c2nc(C(C)(C)C)no2)ccc(-c2ccnc(NC(=O)C3CC3)c2)c1F` [Compound 94, 3-(tert-butyl)-N-(4-(2-(cyclopropanecarboxamido)pyridin-4-yl)-3-fluoro-2-methylbenzyl)-1,2,4-oxadiazole-5-carboxamide], the 50% inhibitory concentration (IC50) in assay [1] is not above 1 nM; in assay [2], not above 100 nM.

Take `Cc1cc(-c2ccnc(NC(=O)C3CC3)c2)ccc1CNC(=O)c1ncc(C(C)(C)C)o1` [Compound 98, 5-(tert-butyl)-N-(4-(2-(cyclopropanecarboxamido)pyridin-4-yl)-2-methylbenzyl)oxazole-2-carboxamide]: the half-maximal inhibitory concentration (IC50) in assay [1] lay in the range of 1 to 10 nM; in assay [2], 500 to 10000 nM.

Regarding `Cc1cc(-c2ccnc(NC(=O)C3CC3)c2)ccc1CNC(=O)c1ccn(C(C)(C)C)n1` [Compound 99, 1-(tert-butyl)-N-(4-(2-(cyclopropanecarboxamido)pyridin-4-yl)-2-methylbenzyl)-1H-pyrazole-3-carboxamide], the IC50 in assay [1] lay within 1 to 10 nM; in assay [2], 500 to 10000 nM.

On to `Cc1c(-c2ccnc(NC(=O)C3CC3)c2)ccc(CNC(=O)c2nc(C(C)(C)C)no2)c1F` [Compound 100, 3-(tert-butyl)-N-(4-(2-(cyclopropanecarboxamido)pyridin-4-yl)-2-fluoro-3-methylbenzyl)-1,2,4-oxadiazole-5-carboxamide], for which the values for the concentration for half-maximal inhibition (IC50) in assay [1] and in assay [2] were not above 1 nM and 500 to 10000 nM, respectively.

`Cc1c(-c2ccnc(NC(=O)C3CC3)c2)ccc(CNC(=O)c2noc(C(C)(C)C)n2)c1F` [Compound 101, 5-(tert-butyl)-N-(4-(2-(cyclopropanecarboxamido)pyridin-4-yl)-2-fluoro-3-methylbenzyl)-1,2,4-oxadiazole-3-carboxamide]: the IC50 is not above 1 nM in assay [1] and 500 to 10000 nM in assay [2].

Consider `Cc1cc(CNC(=O)c2noc(C(C)(C)C)n2)c(F)cc1-c1ccnc(NC(=O)C2CC2)c1` [Compound 102, 5-(tert-butyl)-N-(4-(2-(cyclopropanecarboxamido)pyridin-4-yl)-2-fluoro-5-methylbenzyl)-1,2,4-oxadiazole-3-carboxamide], for which the half-inhibitory concentration (IC50) in assay [1] was in the range of 10 to 1000 nM; in assay [2], 500 to 10000 nM.
